Data published in patent US20250042918A1, “COMPOUNDS” (Fundación Del Sector Públlco Estatal Centro Nacional De …, priority 2021, published 2025).

Key:
BT-474 = experiment: In vitro potency against breast cancer cell lines (CellTiter Glo); format: cell-based; conditions: Homo sapiens, BT-474, 72 h; read-out: absolute IC50 BT-474
Experimental: (§1) To prepare the complete medium FBS and appropriate additives were added according to the information sheet provided by the vendor and mixed gently. The cell name and complete medium and passage number marked on the flask were checked, and the culture medium removed and discarded using a vacuum pump. […] 3.0 ml of Trypsin-EDTA solution was added to the flask and the cells observed under an inverted microscope until cell layer is dispersed. 8.0 ml of complete growth medium was added and the cells aspirated by gently pipetting. The cell suspension was transferred to a centrifuge tube and centrifuged at 800-1000 rpm for 3-5 minutes. The supernatant was discarded using a vacuum pump, and an appropriate volume of complete medium added. The cell pellet was suspended by gently pipetting, and the cell numbers counted with Vi-cell XR and the cells adjusted to appropriate density. 100 μL of cell suspension to 96-well opaque-walled clear bottom plates was added according to the planned plate layout and the plates placed in the CO2 incubator overnight.
(§2) c. […] Meanwhile the day 0 plate was measured by Cell TiterGlo as listed below.
(§3) d. Cells were incubated with the compounds for 72 h at 5% CO2, 37° C.
(§4) The CellTiter-Glo buffer was thawed and equilibrated to room temperature prior to use. The lyophilized CellTiter-Glo substrate was equilibrated to room temperature prior to use. The appropriate volume of CellTiter-Glo buffer was transferred into the amber bottle containing CellTiter-Glo substrate to reconstitute the lyophilized enzyme/substrate mixture, thereby forming the CellTiter-Glo reagent. Mixing was carried out by gently vortexing, swirling or by inverting the contents to obtain a homogeneous solution, the CellTiter-Glo substrate going into solution easily in less than one minute.
(§5) The plate and its contents were equilibrated to room temperature for approximately 30 minutes, after which 100 μL of CellTiter-Glo reagent was added to the assay plate by Multidrop Combi instrument and the contents mixed for 10 minutes on an orbital shaker to induce cell lysis. The plate was allowed to incubate at room temperature for 10 minutes to stabilize luminescent signal and the clear bottom pasted with white back seal and the luminescence recorded with Enspire with the settings: Luminescence, measurement time 0.1 ms.

HCC1143 = experiment: as above; format: cell-based; conditions: Homo sapiens, HCC1143, 72 h; read-out: absolute IC50 HCC1143
Experimental: as §1, §2, §3, §4, §5

HCC1954 = experiment: as above; format: cell-based; conditions: Homo sapiens, HCC1954, 72 h; read-out: absolute IC50 HCC1954
Experimental: as §1, §2, §3, §4, §5

HCC38 = experiment: as above; format: cell-based; conditions: Homo sapiens, HCC38, 72 h; read-out: absolute IC50 HCC38
Experimental: as §1, §2, §3, §4, §5

MDA-MB-361 = experiment: as above; format: cell-based; conditions: Homo sapiens, MDA-MB-361, 72 h; read-out: absolute IC50 MDA-MB-361
Experimental: as §1, §2, §3, §4, §5

T-47D = experiment: as above; format: cell-based; conditions: Homo sapiens, T47D, 72 h; read-out: absolute IC50 T-47D
Experimental: as §1, §2, §3, §4, §5

[1] = test system: Naïve CD4+ T cells, Th17 cells; experiment: CD4+ T cell differentiation under Th17 conditions (IL-17A, ELISA and FACS); format: cell-based, mice
Experimental: (§6) Naïve CD4^+ T cells were purified from mice spleens and lymph nodes using positive selection by magnetic beads (CD4 L3T4 Kit, Miltenyi Biotec, UK). The purified T cells were activated by plate-bound αCD3ε (1 μg/ml; 2C11) and αCD28 (3 μg/ml; 37.51) in the presence or absence of the compound of Example 1 or Cyclosporin A (Sigma Aldrich), and cultured for 72 hrs under Th1 conditions (IL-12 [20 ng/ml]+αIL-4 (11B1) [10 μg/ml]), 72 hrs under Th17 conditions (αIFNγ [10 μg/ml]+αIL-4 [5 μg/ml]+IL-6 [[…]]+TGFβ(5 ng/ml)), and 96 hrs under iTreg conditions (TGFβ (5 ng/ml)) at 37° C.
ELISA kits for mouse IFNγ and IL-17a were purchased from eBioscience (Thermo Fisher, UK) and performed in accordance to manufacturer's instructions using Corning® High Binding ELISA plates (Merck, CLS9018). All ELISAs were analysed using a Synergy MX microplate reader (BioTek).
Intracellular protein expression was evaluated by first restimulating the cells with phorbol-12-myristate 13-acetate (PMA)(10 ng/ml) (Sigma Aldrich), ionomycin (1 μg/ml) (Sigma Aldrich) and Brefeldin A (5 μg/ml) (eBioscience) for 4-6 hours at 37° C. […] Fc block (93) and all fluorescence dye labelled antibodies used αCD4 (GK1.5), αIFNγ (XMG1.2), αIL-17a (17B7), αFOXP3 (NRRF-30; FJK-16S) were purchased from eBiosciences (Thermo Fisher, UK). […]

[2] = test system: Naïve CD4+ T cells, iTreg cells; experiment: CD4+ T cell differentiation under iTreg conditions (FoxP3, FACS); format: cell-based, mice; conditions: 12.5 nM
Experimental: as §6
Intracellular protein expression was evaluated by first restimulating the cells with phorbol-12-myristate 13-acetate (PMA)(10 ng/ml) (Sigma Aldrich), ionomycin (1 μg/ml) (Sigma Aldrich) and Brefeldin A (5 μg/ml) (eBioscience) for 4-6 hours at 37° C. […] Fc block (93) and all fluorescence dye labelled antibodies used αCD4 (GK1.5), αIFNγ (XMG1.2), αIL-17a (17B7), αFOXP3 (NRRF-30; FJK-16S) were purchased from eBiosciences (Thermo Fisher, UK). Multi-parameter analysis was performed on an LSR/Fortessa (Becton Dickinson Biosciences (BD)) and analysed using FlowJo software (Tree Star).

HL-60 = experiment: In vitro potency against leukemia cell lines (CellTiter Glo); format: cell-based; conditions: Homo sapiens, 72 hours, read-out: absolute IC50 HL-60
Experimental: as §1, §2, §3, §5
(§7) In all cases, the incubation time was 72 hours and the cell lines were grown as a suspension. The seeding density was […] in a 96 well plate.

Jeko-1 = experiment: as above; format: cell-based; conditions: Homo sapiens, 72 hours, read-out: absolute IC50 JeKo-1
Experimental: as §1, §2, §3, §5, §7

KG-1 = experiment: as above; format: cell-based; conditions: Homo sapiens, 72 hours, read-out: absolute IC50 KG-1
Experimental: as §1, §2, §3, §5, §7

Kasumi-3 = experiment: as above; format: cell-based; conditions: 72 hours, read-out: absolute IC50 Kasumi-3
Experimental: as §1, §2, §3, §5, §7

MV-4-11 = experiment: as above; format: cell-based; conditions: Homo sapiens, MV4-11; 72 hours; read-out: absolute IC50 MV-4-11
Experimental: as §1, §2, §3, §5, §7

Molm-13 = experiment: as above; format: cell-based; conditions: Homo sapiens, 72 hours, read-out: absolute IC50 Molm-13
Experimental: as §1, §2, §3, §5, §7

OCI-M1 = experiment: as above; format: cell-based; conditions: 72 hours, read-out: absolute IC50 OCI-M1
Experimental: as §1, §2, §3, §5, §7

CN1CCOc2c1c(N[C@H]1CC[C@@](C)(O)CC1)nn1c(-c3cccc(OC(F)(F)F)c3)nnc21 [Example 1, 1-Methyl-4-[6-methyl-3-(3-trifluoromethoxy-phenyl)-7,8-dihydro-6H-9-oxa-1,2,3a,4,6-pentaaza-cyclopenta[a]naphthalen-5-ylamino]-cyclohexanol] showed an IC50 (BT-474) of 7.77 µM, an IC50 (HCC1143) of 5.56 µM and an IC50 (HCC1954) of 8.04 µM. It also gave an IC50 (HCC38) of 5.56 µM, an IC50 (MDA-MB-361) of 9 µM and an IC50 (T-47D) of 6.19 µM. For the same molecule, the “pro-inflammatory Th17 responses” value ([1]; 12.5 nM, 72 hrs Th17 conditions) was “significant suppression”, the “Differentiation of Th17 cells in vitro as determined by the secretion of IL-17A” value ([1]; at a range of concentrations, ELISA and FACS) was “inhibited” and the “generation of immunoregulatory iTreg cells” value [2] was “enhancing the generation”. The “expression of the transcription factor FoxP3” value ([2]; 96 hrs iTreg conditions, FACS) was “significantly increased expression”, the IC50 (HL-60) was 8.75 µM and the IC50 (Jeko-1) was 6.54 µM. It also gave an IC50 (KG-1) of 0.715 µM, an IC50 (Kasumi-3) of 0.232 µM and an IC50 (MV-4-11) of 0.907 µM. The IC50 (Molm-13) was 9.34 µM and the IC50 (OCI-M1) was > 10 µM.
